Results published in paper PMC4150853 (Biochemical and biophysical research communications, 2014).

Assays:
[1] = molecular target: T1, α2A adrenergic receptor (α2AAR) (Mus musculus, UniProt Q01338); experiment: competition radioligand binding with 3H-RX821002
T1 sequence (Q01338 1-465): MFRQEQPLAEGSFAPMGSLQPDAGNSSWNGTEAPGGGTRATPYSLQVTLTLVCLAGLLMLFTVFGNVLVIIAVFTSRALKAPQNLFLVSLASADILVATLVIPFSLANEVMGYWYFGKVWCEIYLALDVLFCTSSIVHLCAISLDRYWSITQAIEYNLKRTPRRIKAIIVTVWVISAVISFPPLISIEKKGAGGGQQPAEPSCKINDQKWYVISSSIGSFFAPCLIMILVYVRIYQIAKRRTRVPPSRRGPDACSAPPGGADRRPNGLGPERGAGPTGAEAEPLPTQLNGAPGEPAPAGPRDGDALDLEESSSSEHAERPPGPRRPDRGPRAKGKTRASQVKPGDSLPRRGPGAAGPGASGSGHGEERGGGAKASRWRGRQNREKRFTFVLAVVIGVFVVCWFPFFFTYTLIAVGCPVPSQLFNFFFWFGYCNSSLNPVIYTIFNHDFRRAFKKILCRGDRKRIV

[2] = molecular target: T1, α2A adrenergic receptor (α2AAR); experiment: […]GTPγS binding, […] NE, nearly two-fold induction; type: cell-based
[3] = molecular target: T1, α2A adrenergic receptor (α2AAR); experiment: radioligand of the competition binding assay

In the case of `CN(C)CCC=C1c2ccccc2CCc2ccccc21` [AMI, amitriptyline], the Ki [1] is reported as 0.33 µM.
`CN(C)CCC[C@@]1(c2ccc(F)cc2)OCc2cc(C#N)ccc21` [ESC, escitalopram] gave a Ki [1] of 79.4 µM.
For `CN(C)CCCN1c2ccccc2CCc2ccccc21` [IMI, imipramine], the Ki [1] was 5.07 µM.
`NC[C@H](O)c1ccc(O)c(O)c1` [NE, norepinephrine] was tested, and the “[35S]GTPγS binding, 10 μM NE, nearly two-fold induction” value [2] was “G protein coupling response by α2AARs is seen only in response the endogenous agonist NE, which drives a nearly two-fold induction”.
For `COC1(C2=NCCN2)COc2ccccc2O1` (centres unmarked) [RX821002], the “radioligand of the competition binding assay” value [3] was “the radioligand was a ^3H-labeled form of the α2AR antagonist RX821002”.
